Data on one molecule can be found in article PMC8874984, “Improved Cell-Potent and Selective Peptidomimetic Inhibitors of Protein N-Terminal Methyltransferase 1” (Molecules, 2022).

Data set [1] relates to cellular α-N-terminal methylation level in HCT116 cells. Put plainly: Cellular N-terminal methylation level, Western blot with anti-me3-SPK antibody. The data set is classed as cell-based. The conditions noted are these: Homo sapiens, HCT-116, cellular N-terminal methylation inhibition, n = 2. As to the method:
Next, we investigated the effects of all peptidomimetic inhibitors with GI50 > 100 µM and IC50 < 1 µM on the cellular α-N-terminal methylation level in HCT116 cells (Table 2). Then, we examined the top three cell-potent peptidomimetic inhibitors 1d–f on the dose-response of inhibition of cellular N-terminal methylation levels. […] As the biochemical IC50 value of GD562 was about three-fold higher than DC541, we proposed that the improved cellular inhibition of GD562 may be attributed to its increased permeability with higher cLogP than DC541.
Figure 5 Inhibition of cellular N-terminal methylation by peptidomimetic inhibitors in HCT116 cells. Representative Western blot results of the effects of GD562 (A), GD564 (B), and GD573 (C) on the cellular methylation level. Image quantification was performed using ImageJ software (NIH). […] All experiments were performed in duplicate (n = 2). […]
Cellular N-methylation level.
The gel was transferred to a
system. Image quantification was done using ImageJ software (NIH). All bands were compared
OrganicsTM, AC418900050) dissolved in sterile 1 x PBS. […]

The next data set has as its target T1, NTMT1 (Homo sapiens, UniProt Q9BV86).
T1 construct: made in house
T1 sequence (Q9BV86 1-223): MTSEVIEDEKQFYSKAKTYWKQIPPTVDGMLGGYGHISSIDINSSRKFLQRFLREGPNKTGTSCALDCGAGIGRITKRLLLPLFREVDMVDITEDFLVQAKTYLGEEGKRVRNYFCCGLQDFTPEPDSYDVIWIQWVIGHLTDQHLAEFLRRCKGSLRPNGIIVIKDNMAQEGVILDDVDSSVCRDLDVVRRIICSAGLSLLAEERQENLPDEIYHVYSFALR
Put plainly: SAHH-coupled fluorescence assay of NTMT1 inhibition. The data set is classed as biochemical.

The nature of data set [2]: Parallel Artificial Membrane Permeability Assay (PAMPA).
Another data set can be described thus: in vitro. The following applies: human.

Experimental for in vitro: Cell viability assay. HCT116 cells were seeded as 5,000 cells/well on 96-well plates in the
presence of 1x PBS or DC541 at different concentrations for 24, 48, or 72 hours. Cell viability
was assessed using 0.2 mg/ml resazurin solutions prepared from resazurin sodium salt (Acros
OrganicsTM, AC418900050) dissolved in sterile 1 x PBS. Then, the cells were incubated with
10 µl resazurin solution (10% of cell culture volume) for four hours at 37 °C. The fluorescence
Cell viability was calculated as 100% × (fluorescence of treated cells – fluorescence of
background controls) / (fluorescence of 1x PBS controls – fluorescence of background

As usually defined, the IC50 is the concentration that inhibits the measured activity by half. By Papp is commonly meant the rate of passage across a membrane or cell layer, normalised by area and donor concentration. A low value points to slow passage. The term GI50 denotes the concentration that inhibits growth by half. A low value points to greater sensitivity of the cells. As to `NCCCCC(NC(=O)C1CCCN1C(=O)Cc1cccc2ccccc12)C(=O)NCCCc1ccccc1` (stereo not drawn) [Compound 1e], the half-inhibitory concentration (IC50) is around 100 µM in data set [1] and 0.65 ± 0.01 µM on NTMT1. Besides, the “Expt. ΔGbind ± σ” value on NTMT1 (estimated from the IC50 values in Table 1) is -8.44 ± 0.01 kcal/mol. For the same molecule, the “IC50/IC50 (DC541)” value on NTMT1 (ratio of NTMT1 IC50 to that of DC541) was 1.9. The Papp in data set [2] was found to be 0.17 ± 0.08 ×10⁻⁶ cm/s. The same molecule displayed a concentration for 50% growth inhibition (GI50) in “in vitro” above 300 µM.
